Measured values: PubChem BioAssay (NCI)
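Exposure lasted 48 hours, with cells grown in 96-well plates and compounds tested at five concentrations. TGI denotes the concentration required for complete inhibition of growth.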

How the values were obtained:
Test in all cases: growth of human tumour cells (NCI), 48 h
UACC-62 melanoma = test system: UACC-62 melanoma
LXFL 529 NSCLC = test system: LXFL 529 NSCLC
EKVX NSCLC = test system: EKVX NSCLC
CAKI-1 renal = test system: CAKI-1 renal
TK-10 renal = test system: TK-10 renal
OVCAR-5 ovarian = test system: OVCAR-5 ovarian
SNB-75 CNS = test system: SNB-75 CNS
SW-620 colon = test system: SW-620 colon
M14 melanoma = test system: M14 melanoma
CCRF-CEM leukemia = test system: CCRF-CEM leukemia
DMS 273 small cell lung = test system: DMS 273 small cell lung
OVCAR-4 ovarian = test system: OVCAR-4 ovarian
HCC-2998 colon = test system: HCC-2998 colon
RPMI-8226 leukemia = test system: RPMI-8226 leukemia
IGROV1 ovarian = test system: IGROV1 ovarian
RXF-631 renal = test system: RXF-631 renal
HOP-62 NSCLC = test system: HOP-62 NSCLC
M19-MEL melanoma = test system: M19-MEL melanoma
KM20L2 colon = test system: KM20L2 colon
A498 renal = test system: A498 renal
NCI-H460 lung = test system: NCI-H460 lung
KM12 colon = test system: KM12 colon
U251 CNS = test system: U251 CNS
SR leukemia = test system: SR leukemia
OVCAR-8 ovarian = test system: OVCAR-8 ovarian
A549 NSCLC = test system: A549 NSCLC
HT29 colon = test system: HT29 colon
SK-OV-3 ovarian = test system: SK-OV-3 ovarian
SK-MEL-5 melanoma = test system: SK-MEL-5 melanoma
SNB-19 CNS = test system: SNB-19 CNS
SK-MEL-28 melanoma = test system: SK-MEL-28 melanoma
RXF 393 renal = test system: RXF 393 renal
SN12C renal = test system: SN12C renal
SF-295 CNS = test system: SF-295 CNS
786-0 renal = test system: 786-0 renal
LOX IMVI melanoma = test system: LOX IMVI melanoma
MALME-3M melanoma = test system: MALME-3M melanoma
OVCAR-3 ovarian = test system: OVCAR-3 ovarian
NCI-H23 lung = test system: NCI-H23 lung
HOP-92 NSCLC = test system: HOP-92 NSCLC
ACHN renal = test system: ACHN renal
HL-60(TB) leukemia = test system: HL-60(TB) leukemia
DLD-1 colon = test system: DLD-1 colon
K-562 leukemia = test system: K-562 leukemia
HOP-18 NSCLC = test system: HOP-18 NSCLC
SF-539 CNS = test system: SF-539 CNS
UACC-257 melanoma = test system: UACC-257 melanoma
DMS 114 small cell lung = test system: DMS 114 small cell lung
SK-MEL-2 melanoma = test system: SK-MEL-2 melanoma
MOLT-4 leukemia = test system: MOLT-4 leukemia
SF-268 CNS = test system: SF-268 CNS
COLO 205 colon = test system: COLO 205 colon
NCI-H522 lung = test system: NCI-H522 lung
UO-31 renal = test system: UO-31 renal
HCT-116 colon = test system: HCT-116 colon
NCI-H226 lung = test system: NCI-H226 lung
SNB-78 CNS = test system: SNB-78 CNS
HCT-15 colon = test system: HCT-15 colon

Measured: TGI

O=S(=O)(c1ccc(O)c(C=Nc2ccc(Cl)cc2)c1)c1ccc(O)c(C=Nc2ccc(Cl)cc2)c1
> 100 µM: UACC-62 melanoma | LXFL 529 NSCLC | EKVX NSCLC | CAKI-1 renal | TK-10 renal | OVCAR-5 ovarian | SNB-75 CNS | SW-620 colon | M14 melanoma | CCRF-CEM leukemia | DMS 273 small cell lung | OVCAR-4 ovarian | HCC-2998 colon | RPMI-8226 leukemia | IGROV1 ovarian | RXF-631 renal | HOP-62 NSCLC | M19-MEL melanoma | KM20L2 colon | A498 renal | NCI-H460 lung | KM12 colon | U251 CNS | SR leukemia | OVCAR-8 ovarian | A549 NSCLC | HT29 colon | SK-OV-3 ovarian | SK-MEL-5 melanoma | SNB-19 CNS | SK-MEL-28 melanoma | RXF 393 renal | SN12C renal | SF-295 CNS | 786-0 renal | LOX IMVI melanoma | MALME-3M melanoma | OVCAR-3 ovarian | NCI-H23 lung | HOP-92 NSCLC | ACHN renal | HL-60(TB) leukemia | DLD-1 colon | K-562 leukemia | HOP-18 NSCLC | SF-539 CNS | UACC-257 melanoma | DMS 114 small cell lung | SK-MEL-2 melanoma | MOLT-4 leukemia | SF-268 CNS | COLO 205 colon | NCI-H522 lung | UO-31 renal | HCT-116 colon | NCI-H226 lung

COc1cccc(NC(=O)C(=O)C(C(C)=O)c2nc3ccc(Cl)cc3[nH]c2=O)c1 (configuration not stated)
> 100 µM: UACC-62 melanoma | LXFL 529 NSCLC | EKVX NSCLC | CAKI-1 renal | SNB-78 CNS | TK-10 renal | OVCAR-5 ovarian | SNB-75 CNS | HCT-15 colon | SW-620 colon | M14 melanoma | CCRF-CEM leukemia | DMS 273 small cell lung | OVCAR-4 ovarian | HCC-2998 colon | RPMI-8226 leukemia | IGROV1 ovarian | RXF-631 renal | HOP-62 NSCLC | M19-MEL melanoma | KM20L2 colon | A498 renal | NCI-H460 lung | KM12 colon | U251 CNS | OVCAR-8 ovarian | A549 NSCLC | HT29 colon | SK-OV-3 ovarian | SK-MEL-5 melanoma | SNB-19 CNS | SK-MEL-28 melanoma | RXF 393 renal | SN12C renal | SF-295 CNS | 786-0 renal | LOX IMVI melanoma | MALME-3M melanoma | OVCAR-3 ovarian | NCI-H23 lung | HOP-92 NSCLC | ACHN renal | HL-60(TB) leukemia | DLD-1 colon | K-562 leukemia | HOP-18 NSCLC | SF-539 CNS | UACC-257 melanoma | DMS 114 small cell lung | SK-MEL-2 melanoma | MOLT-4 leukemia | SF-268 CNS | COLO 205 colon | UO-31 renal | HCT-116 colon | NCI-H226 lung
